Biological target: P2Y purinoceptor 1 (Rattus norvegicus, UniProt P49651)
Experiment: Concentration required for calcium mobilization at rat purinergic 2Y1 receptor expressed in HEK 293 cells

Sequence of P2Y purinoceptor 1 (P49651 whole entry): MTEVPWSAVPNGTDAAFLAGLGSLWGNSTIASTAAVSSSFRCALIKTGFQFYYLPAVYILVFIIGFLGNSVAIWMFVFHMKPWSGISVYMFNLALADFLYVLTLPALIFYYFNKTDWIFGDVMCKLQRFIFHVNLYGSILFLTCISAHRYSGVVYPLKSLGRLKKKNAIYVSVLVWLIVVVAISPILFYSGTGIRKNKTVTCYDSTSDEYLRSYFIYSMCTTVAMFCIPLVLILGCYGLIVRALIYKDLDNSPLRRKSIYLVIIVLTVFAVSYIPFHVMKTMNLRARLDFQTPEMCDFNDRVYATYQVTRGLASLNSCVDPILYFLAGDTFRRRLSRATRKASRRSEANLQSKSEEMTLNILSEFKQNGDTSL

How did the EC50 turn out when `B[PH](O)(OC[C@H]1OC(n2cnc3c(N)nc(Cl)nc32)[C@H](O)[C@@H]1O)OP(=O)(O)OP(=O)(O)O` (stereo partly specified) was run?
The EC50 was 4.5 nM.

— BindingDB's records for doi:10.1021/jm049771u (Bar-Ilan University, 2004)
